26 compounds from patent publication US7781591B2, “Substituted 3-cyanopyridines as protein kinase inhibitors” (Wyeth LLC, priority 2006, dated 2010) can be followed below.

In the experiment the target is T1, human PKCθ full length enzyme (Homo sapiens, UniProt Q04759).
T1 construct: human PKCθ full length enzyme (Panvera Cat# P2996); purchased Panvera P2996
In words: PKCθ IMAP assay (fluorescence polarization). The class given is biochemical. Particulars: human PKCθ full length enzyme, IMAP; average value; read-out: IC50 PKCθ IMAP. Background: Fluorescence polarisation rises when a labelled molecule tumbles more slowly, as on binding a larger partner.

T1 sequence (Q04759 whole entry): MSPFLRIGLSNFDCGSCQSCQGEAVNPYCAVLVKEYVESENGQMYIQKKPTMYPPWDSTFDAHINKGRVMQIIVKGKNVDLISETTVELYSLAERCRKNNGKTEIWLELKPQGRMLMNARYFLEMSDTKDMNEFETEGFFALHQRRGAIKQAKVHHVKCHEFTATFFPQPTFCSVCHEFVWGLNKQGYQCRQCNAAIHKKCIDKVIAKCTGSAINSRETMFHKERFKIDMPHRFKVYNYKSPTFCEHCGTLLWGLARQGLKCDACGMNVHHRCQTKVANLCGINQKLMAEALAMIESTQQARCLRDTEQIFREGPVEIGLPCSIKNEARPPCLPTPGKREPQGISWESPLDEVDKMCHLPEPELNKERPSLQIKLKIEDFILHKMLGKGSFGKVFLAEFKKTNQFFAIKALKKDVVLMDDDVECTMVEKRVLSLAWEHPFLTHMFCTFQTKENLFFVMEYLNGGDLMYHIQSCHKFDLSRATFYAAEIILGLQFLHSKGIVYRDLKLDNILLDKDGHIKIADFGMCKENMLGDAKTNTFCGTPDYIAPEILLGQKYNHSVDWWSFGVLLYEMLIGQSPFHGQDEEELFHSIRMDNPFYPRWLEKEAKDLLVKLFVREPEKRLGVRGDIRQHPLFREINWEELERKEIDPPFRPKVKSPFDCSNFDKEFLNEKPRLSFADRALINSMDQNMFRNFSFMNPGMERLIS

As for `Cc1c(Nc2c(C#N)cncc2-c2cccc(CN3CCCC3)c2)ccc2[nH]ccc12` [Compound 455, 4-[(4-methyl-1H-indol-5-yl)amino]-5-[3-(pyrrolidin-1-ylmethyl)phenyl]nicotinonitrile], the IC50 amounted to 7 nM.
For `Cc1c(Nc2c(C#N)cncc2-c2cccc(CN3CCOCC3)c2)ccc2[nH]ccc12` [Compound 456, 4-[(4-methyl-1H-indol-5-yl)amino]-5-[3-(morpholin-4-ylmethyl)phenyl]nicotinonitrile] the value was 23 nM.
As for `Cc1c(Nc2c(C#N)cncc2-c2cccc(CN(C)C)c2)ccc2[nH]ccc12` [Compound 457, 5-{3-[(dimethylamino)methyl]phenyl}-4-[(4-methyl-1H-indol-5-yl)amino]nicotinonitrile], the IC50 worked out at 7 nM.
The value for `N#Cc1cncc(-c2ccc(OC[C@H](N)Cc3ccccc3)cc2)c1Nc1cccc2[nH]ccc12` [Compound 458, 5-(4-{[(2R)-2-amino-3-phenylpropyl]oxy}phenyl)-4-(1H-indol-4-ylamino)nicotinonitrile] was 14 nM; that for `Cc1c(Nc2c(C#N)cncc2-c2ccc(CN3CCN(C)CC3)cc2F)ccc2[nH]ccc12` [Compound 459, 5-{2-fluoro-4-[(4-methylpiperazin-1-yl)methyl]phenyl}-4-[(4-methyl-1H-indol-5-yl)amino]nicotinonitrile] was 6 nM; that for `Cc1c(Nc2c(C#N)cncc2-c2cc3cc(CN4CCCCC4)ccc3o2)ccc2[nH]ccc12` [Compound 461, 4-[(4-methyl-1H-indol-5-yl)amino]-5-[5-(piperidin-1-ylmethyl)-1-benzofuran-2-yl]nicotinonitrile] was 1 nM.
For `Cc1c(Nc2c(C#N)cncc2-c2cc3cc(CN4CCN(C)CC4)ccc3o2)ccc2[nH]ccc12` [Compound 462, 4-[(4-methyl-1H-indol-5-yl)amino]-5-{5-[(4-methylpiperazin-1-yl)methyl]-1-benzofuran-2-yl}nicotinonitrile] the value was 0.2 nM; for `Cc1c(Nc2c(C#N)cncc2-c2ccc(CN3CCN(C)CC3)s2)ccc2[nH]ccc12` [Compound 464, 4-[(4-methyl-1H-indol-5-yl)amino]-5-{5-[(4-methylpiperazin-1-yl)methyl]-2-thienyl}nicotinonitrile], 6 nM; for `Cc1c(Nc2c(C#N)cncc2-c2cc3cc(C=O)ccc3o2)ccc2[nH]ccc12` [Compound 465, 5-(5-formyl-1-benzofuran-2-yl)-4-[(4-methyl-1H-indol-5-yl)amino]nicotinonitrile], 1 nM.
For `Cc1c(Nc2c(C#N)cncc2-c2oc3ccccc3c2C)ccc2[nH]ccc12` [Compound 466, 5-(3-methyl-1-benzofuran-2-yl)-4-[(4-methyl-1H-indol-5-yl)amino]nicotinonitrile] the value was 17 nM; for `Cc1c(Nc2c(C#N)cncc2-c2ccncc2)ccc2[nH]ccc12` [Compound 467, 4-[(4-methyl-1H-indol-5-yl)amino]-3,4′-bipyridine-5-carbonitrile], 36 nM; for `Cc1c(Nc2c(C#N)cncc2-c2ccc(CN3CCN(C)CC3)o2)ccc2[nH]ccc12` [Compound 468, 4-[(4-methyl-1H-indol-5-yl)amino]-5-{5-[(4-methylpiperazin-1-yl)methyl]-2-furyl}nicotinonitrile], 4 nM.
For the compound `Cc1c(Nc2c(C#N)cncc2-c2ccnc(Cl)c2)ccc2[nH]ccc12` [Compound 469, 2′-chloro-4-[(4-methyl-1H-indol-5-yl)amino]-3,4′-bipyridine-5-carbonitrile], the IC50 stood at 31 nM.
As to `Cc1c(Nc2c(C#N)cncc2-c2ccc(OCCN3CCN(C)CC3)cc2Cl)ccc2[nH]ccc12` [Compound 470, 5-{2-chloro-4-[2-(4-methylpiperazin-1-yl)ethoxy]phenyl}-4-[(4-methyl-1H-indol-5-yl)amino]nicotinonitrile], the IC50 was 107 nM.
For `Cc1c(Nc2c(C#N)cncc2-c2cccnc2Cl)ccc2[nH]ccc12` [Compound 471, 2′-chloro-4-[(4-methyl-1H-indol-5-yl)amino]-3,3′-bipyridine-5-carbonitrile] the value was 156 nM; for `Cc1c(Nc2c(C#N)cncc2-c2ccc(OCCCN3CCN(C)CC3)cc2)ccc2[nH]ccc12` [Compound 472, 4-[(4-methyl-1H-indol-5-yl)amino]-5-{4-[3-(4-methylpiperazin-1-yl)propoxy]phenyl}nicotinonitrile], 19 nM; for `Cc1c(Nc2c(C#N)cncc2-c2ccc(OCCCN3CCOCC3)cc2)ccc2[nH]ccc12` [Compound 473, 4-[(4-methyl-1H-indol-5-yl)amino]-5-[4-(3-morpholin-4-ylpropoxy)phenyl]nicotinonitrile], 24 nM.
On to `Cc1c(Nc2c(C#N)cncc2-c2ccc(OCCCN3CCCCC3)cc2)ccc2[nH]ccc12` [Compound 474, 4-[(4-methyl-1H-indol-5-yl)amino]-5-[4-(3-piperidin-1-ylpropoxy)phenyl]nicotinonitrile], for which the IC50 was 13 nM.
The value for `Cc1c(Nc2c(C#N)cncc2-c2ccc(OCCCN(C)C)cc2)ccc2[nH]ccc12` [Compound 475, 5-{4-[3-(dimethylamino)propoxy]phenyl}-4-[(4-methyl-1H-indol-5-yl)amino]nicotinonitrile] was 9 nM.
The value for `COCCOc1ccc(-c2cncc(C#N)c2Nc2ccc3[nH]ccc3c2C)cc1OCCOC` [Compound 477, 5-[3,4-bis(2-methoxyethoxy)phenyl]-4-[(4-methyl-1H-indol-5-yl)amino]nicotinonitrile] was 72 nM; that for `COCCOc1ccc(-c2cncc(C#N)c2Nc2ccc3[nH]ccc3c2C)cc1OC` [Compound 478, 5-[3-methoxy-4-(2-methoxyethoxy)phenyl]-4-[(4-methyl-1H-indol-5-yl)amino]nicotinonitrile] was 11 nM.
The value for `Cc1c(Nc2c(C#N)cncc2-c2cc3cc(CO)ccc3o2)ccc2[nH]ccc12` [Compound 481, 5-[5-(hydroxymethyl)-1-benzofuran-2-yl]-4-[(4-methyl-1H-indol-5-yl)amino]nicotinonitrile] was 0.21 nM; that for `COCCOc1ccc(-c2cncc(C#N)c2Nc2ccc3[nH]ccc3c2C)cc1` [Compound 482, 5-[4-(2-methoxyethoxy)phenyl]-4-[(4-methyl-1H-indol-5-yl)amino]nicotinonitrile] was 11 nM; that for `COCCOc1cccc(-c2cncc(C#N)c2Nc2ccc3[nH]ccc3c2C)c1` [Compound 483, 5-[3-(2-methoxyethoxy)phenyl]-4-[(4-methyl-1H-indol-5-yl)amino]nicotinonitrile] was 36 nM.
As to `CN1CCN(Cc2ccc3oc(-c4cncc(C#N)c4Nc4ccc5[nH]ccc5c4)cc3c2)CC1` [Compound 485, 4-(1H-indol-5-ylamino)-5-{5-[(4-methylpiperazin-1-yl)methyl]-1-benzofuran-2-yl}nicotinonitrile], the half-maximal inhibitory concentration (IC50) was determined as 5 nM.
In the case of `Cc1c(Nc2c(C#N)cncc2-c2ccc(CN3CCN(C4CCCC4)CC3)o2)ccc2[nH]ccc12` [Compound 486, 5-{5-[(4-cyclopentylpiperazin-1-yl)methyl]-2-furyl}-4-[(4-methyl-1H-indol-5-yl)amino]nicotinonitrile], the IC50 was 4 nM.

By IC50 is commonly meant the concentration that inhibits the measured activity by half.
